Data as given in ChEMBL document CHEMBL3507680, “University of Dundee, Gates Library screen for HepG2 cell viability”.

Experiment: Human HepG2 cell viability assay in 384 well format
Assay type: toxicity, cell-based
Set-up: dose 125 nL, time 70.5 hour; concentration not given beside the values
Settings: HepG2 cells, read-out: Inhibition

| Structure (SMILES) | cytotoxicity at 70.5 h |
| --- | --- |
| O=C(c1cc(C2CC2)[nH]n1)N1CCN(Cc2ccc(Cl)cc2)CC1 | 12.5% |
| CCS(=O)(=O)N1CCN(C(=O)c2cnc3[nH]nc(C)c3c2)CC1 | -5.38% |
| O=S(=O)(N1CCOCC1)N1CCCC(c2ccccn2)C1 (stereo unspecified) | -8.61% |
| CCc1noc(CS(=O)(=O)C/C=C/c2ccccc2)n1 | -10.8% |
| CCn1cc(C(=O)NCC2(C(N)=O)CCOCC2)c2ccccc21 | 0.306% |
| CCC(=O)NC(Cc1cc(N(C)C)nc(C2CC2)n1)c1ccccc1 (stereo unspecified) | -2.39% |
| COc1ccc(C(O)CN2CC(n3nc(C)cc3C)C2)cc1 (stereo unspecified) | 1.87% |
| Cc1nc2c(c(NC3CC3)n1)CCN(C(=O)C1(C#N)CC1)CC2 | -16.3% |
| CCOc1ncccc1NC(=O)N1CCC(n2cncn2)CC1 | -8.07% |
| O=C(NCc1ccc2nonc2c1)C1CCN(C(=O)C2CCC2)CC1 | -6.22% |
| O=C(O)[C@@H]1CN(C(=O)CSCC2CC2)C[C@H]1c1ccccn1 | -1.99% |
| Cc1noc(C)c1CS(=O)(=O)CC(=O)NCCc1ccccc1 | 15.9% |
| O=c1[nH]cnc2[nH]c(N3CCNCC3)nc12 | -2.26% |
| CCC(NC(=O)CCNC(=O)c1ccccc1F)c1cc(C)ccn1 (stereo unspecified) | -0.798% |
| C[C@@H]1CN(Cc2cccc(F)c2)C[C@]12CCN(Cc1cccnc1)C2=O | -10.4% |
| CNc1cc2c(nn1)CCN(C(=O)c1ccoc1)C2 | -6.62% |
| O=C(Cc1ccc(F)cc1Cl)N1CC[C@H](CO)[C@@H](O)C1 | 9.17% |
| CN1CCN2C[C@@H](NC(=O)c3nc4ccccc4[nH]3)C[C@H]2C1 | -4.68% |
| CC(=O)NCCn1ccc(-c2ccccn2)n1 | -2.73% |
| O=C(NCc1nnc2n1CCCCC2)N(Cc1ccccn1)C1CC1 | 0.752% |
| O=C(CSc1ccncc1)N1CCC2(CC1)c1ccccc1CC2O (stereo unspecified) | -5.15% |
| Cc1ccc(C(=O)N2CCN(Cc3cccs3)CC2)c(=O)[nH]1 | -3.21% |
| CCn1c(C)nnc1CN(C)C1CCN(CCCOC)C1 (stereo unspecified) | 3.25% |
| CCn1cc(NS(=O)(=O)c2ccc(Br)s2)c(C(=O)NCC(C)C)n1 | -0.598% |

| Structure (SMILES) | cytotoxicity at 70.5 h |
| --- | --- |
| CCN(C(=O)NCCc1cccc(F)c1F)C(C)CS(C)(=O)=O (stereo unspecified) | -5.85% |
| O=C(NC(CC(F)(F)F)c1ccc(Cl)cc1)c1nc(=O)[nH][nH]1 (stereo unspecified) | 0.759% |
| CC(=O)N1CCC2(CCN(CC3CCCCC3)C2)CC1 | 3.48% |
| Cc1cc(CN(C2CC2)C(C)C(C)C)on1 (stereo unspecified) | 1.68% |
| O=C(NCC(O)c1cccs1)c1cccc(Cl)c1 (stereo unspecified) | -2.42% |
| CC1CCN(S(=O)(=O)N2C[C@H](c3ccccc3)[C@@H](N)C2)CC1 | 27.7% |
| Cn1nnc(NCc2ccc(-c3ccc(Br)cc3)o2)n1 | -9.29% |
| COc1ccc(C(=O)Nc2cc(CC(C)C)nn2C)cc1 | 7.52% |
| CC1Cc2cc(-c3cncn3CC(=O)NC(C)(C)C)ccc2N1C (stereo unspecified) | -7.08% |
| NC(=O)CN1CCC(c2csc(Nc3cnccn3)n2)CC1 | -4.74% |
| Cc1cccc(OCCNC(=O)CN2CCCC2c2noc(C)n2)c1 (stereo unspecified) | -4.91% |
| O=C([C@@H]1COC[C@H]2CN(C3CCCC3)C[C@H]21)N1CCCCO1 | 11.7% |
| c1cnc(N2CCC3(COCCN(CC4CC4)C3)C2)nc1 (stereo unspecified) | -21.1% |
| CN1CC(=O)N(c2ccccc2)CC12CCN(CCO)C2 (stereo unspecified) | 6.4% |
| O=C(NCCCN1CCOCC1)c1ccn(-c2ccc3ccccn23)n1 | 23.5% |
| COCCNC(=O)NCC(C)c1ccccc1OC (stereo unspecified) | -8.45% |
| CN(Cc1cnn(C)c1)C(=O)NCc1cc(Br)cs1 | -2.54% |
| Cc1ncnc2c1CCN(C(=O)c1cccnc1)CC2 | -6.81% |
| CN(C)S(=O)(=O)c1ccc(OCCNCCn2cccn2)cc1 | 33.7% |
| Oc1nc(N2CCOCC2)nc2c1CCN(Cc1cccc(F)c1)CC2 | -5.57% |
| Cc1ccc(-c2nnc(CN3CCc4cnc(C)nc4C3)o2)cc1 | 3.5% |
| Cc1noc(C)c1CN(C)c1ncnc2onc(C)c12 | 9.42% |
| CC(C)NC(=O)CN(C1CC1)C(C)C1CC1 (stereo unspecified) | -3.55% |
| Cc1ncsc1C(=O)NCCc1cccs1 | 2.38% |

| Structure (SMILES) | cytotoxicity at 70.5 h |
| --- | --- |
| Cc1c(-c2nc3cc(S(=O)(=O)N4CCCC4)ccc3n2C)cnn1C | -22.4% |
| CCOCC1c2c(cnn2C)CCN1C(=O)c1cc(C)on1 (stereo unspecified) | 6.2% |
| CCOC(=O)[C@H]1CNC[C@@H]1C(F)(F)F | -11.1% |
| CC(C)N(Cc1ccc(Cl)c(Cl)c1)C(=O)CCn1cncn1 | -2.22% |
| OCC1(NCc2cnc(-c3cccs3)s2)CCOCC1 | -6.15% |
| Cc1ccc(CNC(=O)NC(C)CCS(C)(=O)=O)cc1F (stereo unspecified) | -7.34% |
| CCc1ccc(-c2c(C)c(-c3cnn(C)c3)nc(N)c2C#N)o1 | -6.72% |
| Cn1cnc(S(=O)(=O)Nc2cc(C(N)=O)ccc2Cl)c1 | -8.58% |
| c1ccc2nc(N3CCCCC3)c(NCc3nnc4n3CCC4)nc2c1 | -8.39% |
| CC1c2ncc(Cn3cncn3)n2CCN1C1CCOCC1 (stereo unspecified) | 2.73% |
| CC(C(=O)Nc1ccc(Cl)cn1)N1CCc2nn(C)c(=O)cc2C1 (stereo unspecified) | -2.78% |
| Cc1nc(COC[C@H]2CCC[C@]23CN(C2CCOC2)CCO3)cs1 (stereo partly specified) | 22.4% |
| CSc1ccccc1C(=O)Nc1ccc(OC2CCN(C)CC2)cc1 | 17.4% |
| CNC(=O)c1cccc(C2CNCCN2C)c1 (stereo unspecified) | 19.9% |
| Cc1nc(CN2CCCc3cc(OC(F)(F)F)ccc32)oc1C | 4.79% |
| COC(=O)N1CCc2ccccc2C1C(=O)NCc1ccncc1 (stereo unspecified) | -3.87% |
| Cc1ccc(C(=O)N2CCc3nc4c(C)csc4c(=O)n3CC2)cn1 | -4.08% |
| CNC(=O)Cc1noc(-c2cc3c(s2)CCC(C)(C)C3)n1 | -3.09% |
| COc1cc(C(=O)NS(=O)(=O)c2cncc(Br)c2)cc(Cl)c1OC | -15.8% |
| O=C([C@H]1CC[C@@H]2[C@@H](CCN2Cc2ccsc2)O1)N1CCOCC1 | -6.53% |
| Cc1nc2c(c(NCCNC(=O)C(C)C)n1)Cc1ccccc1OC2 | -6.01% |
| CCc1ncc(C(=O)N2C[C@@H](C)O[C@@H](C)C2)cn1 | -5% |
| Cc1nc(C)n(CC2CCCN2Cc2cc(-c3cccs3)on2)n1 (stereo unspecified) | -13.7% |
| O=C1CC(C(=O)O)C2(CCN(C(=O)Nc3ccccc3Cl)CC2)N1 (stereo unspecified) | -2.72% |

| Structure (SMILES) | cytotoxicity at 70.5 h |
| --- | --- |
| Cc1noc(C)c1CCCNC(=O)Nc1ccc2c(c1)CC(=O)N2 | -8.94% |
| COCCN1CCC2(CC1)CCN(Cc1ccccn1)CC2 | -1.25% |
| CC(C)(C)OC(=O)NC1CCCN(Cc2cccc(O)c2)C1 (stereo unspecified) | -4.69% |
| CC[C@@H](c1ccccc1)n1c(CN)n[nH]c1=O | -13.5% |
| CS(=O)(=O)CCN1CCN(c2ccc(Cl)cn2)CC1 | 1.44% |
| CC(C)Oc1ncccc1CNC(=O)N1CCOCC1 | -14.9% |
| C=Cc1ccc(CSc2nc3c(c(=O)[nH]2)CN(CCC)CC3)cc1 | 8.58% |
| CCC(=O)NC(c1cccnc1)c1cc(C)ccc1C (stereo unspecified) | -12.3% |
| c1cncc(CNCCc2cccs2)c1 | -9.29% |
| O=C1C(Sc2nc(=O)ccn2C2CC2)CCN1c1ccccc1F (stereo unspecified) | 2.14% |
| CCNC(=O)N(CCCO)C1CCCc2ccccc21 (stereo unspecified) | -3.93% |
| O=C(CCn1cncn1)Nc1ccc(F)cc1OCC1CC1 | -9.3% |
| Cc1nn(C)c2cnn(Cc3ccc(C(=O)N4CCCCC4)o3)c12 | -5.62% |
| CCc1cc(CN(C)C(=O)c2cnon2)on1 | -2.96% |
| Cc1cc(CN(C)C(=O)NCc2ccco2)no1 | -2.34% |
| Cn1cc(C2CCCN2C(=O)c2cnc(C3CC3)s2)cn1 (stereo unspecified) | -5% |
| O=C(Nc1ccc(-c2ccco2)cc1)C1CCCN(Cc2ccon2)C1 (stereo unspecified) | 1.57% |
| CS(=O)(=O)CCC(=O)NC1CC(c2cccc(Cl)c2)C1 (stereo unspecified) | 14.6% |
| c1ccc(C2CCN(c3ncnc4c3CCNC4)CC2)cc1 | -4.79% |
| CC(C)Oc1ncccc1CNC(=O)N1CCC(n2cccc2)CC1 | -0.649% |
| CCc1ncnc2c1CCN(C(=O)c1cccn1C)CC2 | 20.2% |
| CCN(CC)c1ncnc2c(C)nn(CC)c12 | -0.883% |
| CC1CCCCN1c1nc2c(c(=O)[nH]1)CCN(Cc1ccccc1O)C2 (stereo unspecified) | -7.53% |
| Cc1nn(Cn2ccc(C(=O)N3CCC(C)CC3)n2)c(C)c1Cl | -13.2% |

| Structure (SMILES) | cytotoxicity at 70.5 h |
| --- | --- |
| COCCc1noc(CN2CCCC2Cn2cccn2)n1 (stereo unspecified) | -9.31% |
| Oc1cccc(C2CN(c3nnc(C4CC4)s3)CCO2)c1 (stereo unspecified) | -4.99% |
| CN(C1CCc2ccccc2C1)S(C)(=O)=O (stereo unspecified) | 0.716% |
| CC(C)c1noc(-c2ccnc(-n3cnc(C(=O)O)c3)c2)n1 | -14.7% |
| CC(C)OCCCN(Cc1ccncc1)Cc1cccc(F)c1 | 1.37% |
| Cc1cc(C(=O)NCC2OCCc3cn(CC4CC4)nc32)c(C)[nH]1 (stereo unspecified) | -3.07% |
| Cc1ccccc1C(=O)N1C[C@@H](O)[C@H](N2CCOCC2)C1 | -3.66% |
| Cc1cnc(C(=O)N2CCCCC2c2[nH]ncc2S(C)(=O)=O)cn1 (stereo unspecified) | 3.44% |
| Cc1ccccc1S(=O)(=O)NC(=O)C1(c2cccc(Cl)c2)CC1 | -5.62% |
| O=C(N1CCCC1)N1CCC2(CCCN(CCOc3ccccc3)C2)C1 (stereo unspecified) | 26.5% |
| O=C(c1ccoc1)N(Cc1ccccn1)C1CC1 | -14.2% |
| CC(=O)NCc1ccc(C(=O)N2CCCc3c(F)ccc(C)c32)o1 | -2.6% |
| CC1(C)CC(N(Cc2ccccc2)Cc2c[nH]cn2)CC(C)(C)N1 | 2.11% |
| CN1CCc2nc(C3CCN(C(=O)CCC4CCCC4)CC3)ncc2C1 | -16.6% |
| Cc1nc(NC(=O)OC(C)(C)C)sc1C#N | -6.61% |
| CCCn1c(=O)n(CCC(=O)N(C)Cc2ccc(C)o2)c2ccccc21 | -4.98% |
| CCSCCC(=O)Nc1ncn(Cc2cccnc2)n1 | -9.89% |
| CC1(C)CC(C(=O)N2CCC3(CCC(=O)N(C4CC4)C3)CC2)CCO1 (stereo unspecified) | -4.55% |
| CC(C)OCc1nn(C)c2c1CCN(CC1CC1)C2 | -2.45% |
| O=C(c1ccncn1)N1CCO[C@H]2[C@@H](OCc3cccnc3)CC[C@@H]21 | -9.05% |
